Measured values taken from PubChem BioAssay (NCI).
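The compound was tested at five concentrations on cells cultured in 96-well plates, with a 48-hour exposure period. At the GI50, growth is halved. At the TGI there is no net growth.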

Tests used:
Assay in all cases: NCI anticancer screen, dose series, 48 h
786-0 renal = tested on: 786-0 renal
A498 renal = tested on: A498 renal
A549 NSCLC = tested on: A549 NSCLC
ACHN renal = tested on: ACHN renal
BT-549 breast = tested on: BT-549 breast
CAKI-1 renal = tested on: CAKI-1 renal
CCRF-CEM leukemia = tested on: CCRF-CEM leukemia
COLO 205 colon = tested on: COLO 205 colon
DU-145 prostate = tested on: DU-145 prostate
EKVX NSCLC = tested on: EKVX NSCLC
HCC-2998 colon = tested on: HCC-2998 colon
HCT-15 colon = tested on: HCT-15 colon
HL-60(TB) leukemia = tested on: HL-60(TB) leukemia
HOP-62 NSCLC = tested on: HOP-62 NSCLC
HOP-92 NSCLC = tested on: HOP-92 NSCLC
HS 578T breast = tested on: HS 578T breast
HT29 colon = tested on: HT29 colon
IGROV1 ovarian = tested on: IGROV1 ovarian
K-562 leukemia = tested on: K-562 leukemia
KM12 colon = tested on: KM12 colon
LOX IMVI melanoma = tested on: LOX IMVI melanoma
M14 melanoma = tested on: M14 melanoma
MALME-3M melanoma = tested on: MALME-3M melanoma
MCF7 breast = tested on: MCF7 breast
MDA-MB-231 breast = tested on: MDA-MB-231 breast
MDA-MB-435 = tested on: MDA-MB-435
MOLT-4 leukemia = tested on: MOLT-4 leukemia
NCI-H226 lung = tested on: NCI-H226 lung
NCI-H23 lung = tested on: NCI-H23 lung
NCI-H460 lung = tested on: NCI-H460 lung
NCI-H522 lung = tested on: NCI-H522 lung
NCI/ADR-RES ovarian = tested on: NCI/ADR-RES ovarian
OVCAR-3 ovarian = tested on: OVCAR-3 ovarian
OVCAR-4 ovarian = tested on: OVCAR-4 ovarian
OVCAR-5 ovarian = tested on: OVCAR-5 ovarian
OVCAR-8 ovarian = tested on: OVCAR-8 ovarian
PC-3 prostate = tested on: PC-3 prostate
RPMI-8226 leukemia = tested on: RPMI-8226 leukemia
SF-268 CNS = tested on: SF-268 CNS
SF-295 CNS = tested on: SF-295 CNS
SF-539 CNS = tested on: SF-539 CNS
SK-MEL-2 melanoma = tested on: SK-MEL-2 melanoma
SK-MEL-28 melanoma = tested on: SK-MEL-28 melanoma
SK-MEL-5 melanoma = tested on: SK-MEL-5 melanoma
SK-OV-3 ovarian = tested on: SK-OV-3 ovarian
SN12C renal = tested on: SN12C renal
SNB-19 CNS = tested on: SNB-19 CNS
SNB-75 CNS = tested on: SNB-75 CNS
SW-620 colon = tested on: SW-620 colon
T-47D breast = tested on: T-47D breast
TK-10 renal = tested on: TK-10 renal
U251 CNS = tested on: U251 CNS
UACC-257 melanoma = tested on: UACC-257 melanoma
UACC-62 melanoma = tested on: UACC-62 melanoma
UO-31 renal = tested on: UO-31 renal

SMILES: O=c1cc(N2CCNCC2)oc2c(-c3ccccc3)cccc12
- GI50 (786-0 renal): 33.7 µM
- TGI (786-0 renal): > 100 µM
- GI50 (A498 renal): 25 µM
- TGI (A498 renal): 74.8 µM
- GI50 (A549 NSCLC): 23.3 µM
- TGI (A549 NSCLC): 76.2 µM
- GI50 (ACHN renal): 34.1 µM
- TGI (ACHN renal): > 100 µM
- GI50 (BT-549 breast): > 100 µM
- TGI (BT-549 breast): > 100 µM
- GI50 (CAKI-1 renal): 26.8 µM
- TGI (CAKI-1 renal): > 100 µM
- GI50 (CCRF-CEM leukemia): 25.5 µM
- TGI (CCRF-CEM leukemia): 69.5 µM
- GI50 (COLO 205 colon): 11.3 µM
- TGI (COLO 205 colon): 27.8 µM
- GI50 (DU-145 prostate): 59 µM
- TGI (DU-145 prostate): > 100 µM
- GI50 (EKVX NSCLC): 19.8 µM
- TGI (EKVX NSCLC): > 100 µM
- GI50 (HCC-2998 colon): 18.1 µM
- TGI (HCC-2998 colon): 39.8 µM
- GI50 (HCT-15 colon): 34.7 µM
- TGI (HCT-15 colon): > 100 µM
- GI50 (HL-60(TB) leukemia): 29.4 µM
- TGI (HL-60(TB) leukemia): > 100 µM
- GI50 (HOP-62 NSCLC): 65.4 µM
- TGI (HOP-62 NSCLC): > 100 µM
- GI50 (HOP-92 NSCLC): 17.3 µM
- TGI (HOP-92 NSCLC): > 100 µM
- GI50 (HS 578T breast): 9.75 µM
- TGI (HS 578T breast): > 100 µM
- GI50 (HT29 colon): 24.8 µM
- TGI (HT29 colon): > 100 µM
- GI50 (IGROV1 ovarian): 31.8 µM
- TGI (IGROV1 ovarian): > 100 µM
- GI50 (K-562 leukemia): 13.1 µM
- TGI (K-562 leukemia): 47 µM
- GI50 (KM12 colon): 43.9 µM
- TGI (KM12 colon): > 100 µM
- GI50 (LOX IMVI melanoma): 31.7 µM
- TGI (LOX IMVI melanoma): > 100 µM
- GI50 (M14 melanoma): 15.6 µM
- TGI (M14 melanoma): 29.1 µM
- GI50 (MALME-3M melanoma): 23.6 µM
- TGI (MALME-3M melanoma): 56.8 µM
- GI50 (MCF7 breast): 40.7 µM
- TGI (MCF7 breast): > 100 µM
- GI50 (MDA-MB-231 breast): 24.1 µM
- TGI (MDA-MB-231 breast): > 100 µM
- GI50 (MDA-MB-435): 20.9 µM
- TGI (MDA-MB-435): 98.8 µM
- GI50 (MOLT-4 leukemia): 19.4 µM
- TGI (MOLT-4 leukemia): 56.8 µM
- GI50 (NCI-H226 lung): > 100 µM
- TGI (NCI-H226 lung): > 100 µM
- GI50 (NCI-H23 lung): > 100 µM
- TGI (NCI-H23 lung): > 100 µM
- GI50 (NCI-H460 lung): 48.7 µM
- TGI (NCI-H460 lung): > 100 µM
- GI50 (NCI-H522 lung): 37 µM
- TGI (NCI-H522 lung): > 100 µM
- GI50 (NCI/ADR-RES ovarian): > 100 µM
- TGI (NCI/ADR-RES ovarian): > 100 µM
- GI50 (OVCAR-3 ovarian): 24.6 µM
- TGI (OVCAR-3 ovarian): > 100 µM
- GI50 (OVCAR-4 ovarian): 52.7 µM
- TGI (OVCAR-4 ovarian): > 100 µM
- GI50 (OVCAR-5 ovarian): > 100 µM
- TGI (OVCAR-5 ovarian): > 100 µM
- GI50 (OVCAR-8 ovarian): 74.2 µM
- TGI (OVCAR-8 ovarian): > 100 µM
- GI50 (PC-3 prostate): 32 µM
- TGI (PC-3 prostate): > 100 µM
- GI50 (RPMI-8226 leukemia): 15.3 µM
- TGI (RPMI-8226 leukemia): 38.5 µM
- GI50 (SF-268 CNS): 46.3 µM
- TGI (SF-268 CNS): > 100 µM
- GI50 (SF-295 CNS): 39.8 µM
- TGI (SF-295 CNS): > 100 µM
- GI50 (SF-539 CNS): 68 µM
- TGI (SF-539 CNS): > 100 µM
- GI50 (SK-MEL-2 melanoma): 51.5 µM
- TGI (SK-MEL-2 melanoma): > 100 µM
- GI50 (SK-MEL-28 melanoma): 39.6 µM
- TGI (SK-MEL-28 melanoma): > 100 µM
- GI50 (SK-MEL-5 melanoma): 14.8 µM
- TGI (SK-MEL-5 melanoma): 32.5 µM
- GI50 (SK-OV-3 ovarian): 13.8 µM
- TGI (SK-OV-3 ovarian): 42.2 µM
- GI50 (SN12C renal): 45.1 µM
- TGI (SN12C renal): > 100 µM
- GI50 (SNB-19 CNS): 34.5 µM
- TGI (SNB-19 CNS): > 100 µM
- GI50 (SNB-75 CNS): 15.3 µM
- TGI (SNB-75 CNS): 75 µM
- GI50 (SW-620 colon): 82.9 µM
- TGI (SW-620 colon): > 100 µM
- GI50 (T-47D breast): 26.6 µM
- TGI (T-47D breast): > 100 µM
- GI50 (TK-10 renal): 27.9 µM
- TGI (TK-10 renal): > 100 µM
- GI50 (U251 CNS): 35.4 µM
- TGI (U251 CNS): > 100 µM
- GI50 (UACC-257 melanoma): 13.6 µM
- TGI (UACC-257 melanoma): 29.1 µM
- GI50 (UACC-62 melanoma): 25.2 µM
- TGI (UACC-62 melanoma): > 100 µM
- GI50 (UO-31 renal): 24 µM
- TGI (UO-31 renal): > 100 µM
